The values below are quoted from earlier work in US5502059A, “Substituted 1-naphthyl-3-pyrazolecarboxamides which are active on neurotensin, their preparation and pharmaceutical compositions containing them” (Sanofi, priority 1993, dated 1996).

The data set has as its system neurotensin receptors.

As to `COc1cccc(OC)c1-c1cc(C(=O)NC2(C(=O)O)C3CC4CC(C3)CC2C4)nn1-c1ccnc2cc(Cl)ccc12` (stereo not shown) [SR 48692, 2-1-(7-chloro-4-quinolyl)-5-(2,6-dimethoxyphenyl)-3pyrazolylcarbonylamino!-2-adamantanecarboxylic acid], the neurotensin-antagonist activity entry was “potent and selective neurotensin-antagonist activity”.
